Results on 91 compounds are retold here after a melting point compilation (Tetko et al.; mined from patent text by program, amines drawn as free bases though some values may be those of a salt).

As usually defined, the melting point is the temperature of the solid-liquid transition. In turn, `Cc1ccccc1C1CC(=O)CC(c2ccccc2C)N1C` (stereo unspecified) displayed a melting point of 155 to 157 °C.

`CC(C)(C)c1cc(CCc2ccccc2NC(=O)NC2CCN(Cc3ccncc3)CC2)cc(C(C)(C)C)c1O` displayed a melting point of 156 to 158 °C.

Turning to `Cc1cc(Cl)ccc1Cn1nc(C(C)(C)O)c2ccccc21`, the melting point was 72 to 74 °C.

The compound `CC(C)c1cc2cc(OCC(=O)O)c(Cl)c(Cl)c2s1` returned a melting point of 168 to 170 °C.

On to `O=C1C(=O)N(CC(F)(F)F)c2ccccc21`, for which the melting point lay in the range of 161 to 163 °C.

`Cc1oc2c(NC(=O)c3c(C(=O)OC(C)C)cccc3[N+](=O)[O-])cccc2c1C(C)(C)O` returned a melting point of 118 to 120 °C.

Compound `OCCOc1ccc(-c2nc(-c3ccccc3)nc(-c3ccccc3)n2)c(O)c1` showed a melting point of 195 °C.

Compound `CC(=O)SCC(C(=O)N[C@@H](CC(C)C)C(=O)O)C(F)(F)F` (stereo partly specified) gave a melting point of 150 to 152 °C.

Turning to `CCSC1Oc2ccccc2C(=S)C1(C#N)C(N)=O` (stereo unspecified), the melting point is 165 to 168 °C.

`Cc1cc(C)nc(NC(=O)NS(=O)(=O)c2ccccc2S(=O)(=O)N(C)OCc2ccccc2)n1`: the melting point fell in the range of 186 to 192 °C.

In turn, `CCCc1c2[nH]c(C(=O)OCC)cc(=O)c2cc2c(=O)cc(C(=O)OCC)oc12` registered a melting point of 211 to 212 °C.

`CCOC(=O)C(Cc1ccc(-c2ccc([N+](=O)[O-])cc2)o1)(NC(C)=O)C(=O)OCC` registered a melting point of 183 to 185 °C.

The compound `CCOC(=O)c1ccc(Cn2cnc3ncccc32)cc1` gave a melting point of 142 to 143 °C.

As to `CC1(C)CCCC2(C)CC12/C=C/C(=O)N1CCN(C(N)=O)CC1` (stereo unspecified), the melting point fell in the range of 166 to 168 °C.

Compound `CC1SC(=O)NN=C1c1ccc2c(c1)C(=NNC(=O)c1ccccn1)C(=O)N2` (stereo unspecified) came in with a melting point of over 300 °C.

In turn, `CCC(NC(=O)NS(=O)(=O)C=Cc1ccccc1)C(=O)O` (stereo unspecified) had a melting point of 150 to 152 °C.

In the case of `CC1=C(CCN(O)C(N)=O)c2cc(F)ccc2/C1=C\c1ccc(S(C)(=O)=O)cc1`, the melting point is 187 °C.

With `Cc1nc(-c2ccc(OCCCn3ccnc3)cc2)no1`, the melting point lay in the range of 110 to 112 °C.

`O=C(O)c1ccccc1NCCCN1c2ccccc2CCc2ccccc21` came in with a melting point of 170 to 172 °C.

With `CCOC(=O)c1ncn(Cc2c(F)cccc2F)c1C(=O)OCC`, the melting point is 70 to 72 °C.

Consider `CCn1cnc2c(Nc3cccc(N)c3)nc(N[C@H]3CC[C@H](O)CC3)nc21`, for which the melting point was in the range of 149 to 151 °C.

In turn, `C[Si](C)(C)c1cccc(Cl)c1C(=O)O` had a melting point of 129 to 131 °C.

`CCCc1c(OCCCOc2ccc3c(c2CCC)OC(C(C)=O)(C(=O)OC)CC3)ccc(C(C)=O)c1O` (stereo unspecified) returned a melting point of 58 to 59 °C.

`CCN(CCO)CCN1C(=O)c2ccccc2C1=O` had a melting point of 56 to 58 °C.

Take `N#Cc1ccc(-c2ccc(O)cn2)cc1`: the melting point worked out at 210 °C.

For `COC(=O)c1cc2ccc(S)cc2nc1OC`, the melting point lay within 103 to 105 °C.

`CCOC(=O)c1c[nH]cc1-c1ccc(C)cc1` showed a melting point of 154 to 155 °C.

For `COC(=O)c1c(-c2ccc(OC)cc2)ccc2ccccc12`, the melting point lay in the range of 115 to 116 °C.

Compound `CC1CC2=CC(=O)CCC2C2CCC3(C)C(O)CCC3C12` (stereo unspecified) yielded a melting point of 144 to 146 °C.

In the case of `COC(=O)CC(c1ccccc1)N1C(=O)c2ccccc2C1=O` (stereo unspecified), the melting point is 75 to 76 °C.

The compound `CCN(CC)Cc1nnc(-c2ncn3c2CN(C)C(=O)c2ccccc2-3)o1` had a melting point of 235 to 238 °C.

With `CNC(=O)[C@H](NC(=O)c1ccc(F)cc1C(F)(F)F)[C@@H](CNC(C)=O)c1ccccc1` (racemic), the melting point was found to be 199 °C.

The compound `Cc1c(C)c(N2Cc3cc(Cl)c(Cl)cc3C2)c(C)c2c1OC(C)(C)C2c1ccccc1` (stereo unspecified) returned a melting point of 194 to 196 °C.

Compound `O=C(Cn1nnnc1-c1ccoc1)OCCO` yielded a melting point of 91 to 93 °C.

Compound `N#CC1CN1C(=O)CNC=O` (stereo unspecified) had a melting point of 51 to 56 °C.

In turn, `Cc1c[nH]c(Cc2ccc(O)cc2)n1` gave a melting point of 193 to 194 °C.

For `CCCCCCCCCCCCCCCCNc1ccc(C(=O)OCCCCO)cc1`, the melting point is 61 to 63 °C.

For `CCCCCCCCCCCCCCCCCCOC(=O)C=CC(=O)OCC`, the melting point was determined as 42 °C.

For the compound `COc1ccc(CCOc2ccc(C(=O)N/C(=C\c3ccc(OCC(F)F)cc3)C(=O)NCCO)cc2)cc1`, the melting point is 172 to 174 °C.

The compound `O=C(Nc1ccc(OCCN2CCOCC2)c2ccccc12)c1cc(N2CCOCC2)ncn1` displayed a melting point of 50 to 51 °C.

The compound `O=c1cc(C(F)(F)F)nc(ON=C2CCCC2)n1-c1cc(Oc2ccccc2[N+](=O)[O-])c(Cl)cc1F` had a melting point of 76 to 78 °C.

Consider `Cn1nnnc1S(=O)(=O)Cc1ccccc1`, for which the melting point was 122 to 125 °C.

Turning to `Cn1ncnc1COc1nc2c(cc1-c1ccco1)nnn2-c1ccccc1F`, the melting point fell in the range of 170 to 173 °C.

As to `c1ccc2oc(-c3ccncc3)nc2c1`, the melting point fell in the range of 129 to 131 °C.

As to `CC(=O)Nc1ccc(Sc2ccc(F)cc2)cc1`, the melting point lay within 140 to 141 °C.

Regarding `CSC(C(=O)O)c1cc(=O)oc2cc(O)c(O)cc12` (stereo unspecified), the melting point is 254 to 256 °C.

`CCN(CC)CCNC(=O)Cn1ncc(-c2ccccc2)c1-c1ccccc1`: the melting point lay within 67 to 69 °C.

For the compound `O=Cc1sccc1-c1noc2ccccc12`, the melting point lay within 173 to 174 °C.

`CCOc1cc(Cn2cc(CCC(=O)O)c(-c3ccccc3)c2)cc(OCc2csc(-c3cccs3)n2)c1` displayed a melting point of 104 to 105 °C.

The compound `CCOC(=O)c1cc2c(O)nncc2nc1NC` yielded a melting point of 290 to 292 °C.

As for `O=C(Nc1ccc2c(c1)CCC2)OCc1ccccc1`, the melting point lay within 56 to 59 °C.

`O=C(OCC(Cn1cnc2c(Cl)nc3ccccc3c21)OC(=O)c1ccccc1)c1ccccc1` (stereo unspecified): the melting point was 162 to 165 °C.

`CC(C)Nc1c(C#N)cnn1-c1ccc(Cl)c(Cl)c1Cl` showed a melting point of 141 to 142 °C.

The compound `O=C(Cl)N(OCc1ccccc1)C1c2ccccc2Oc2ccccc21` returned a melting point of 117 °C.

Compound `COc1cc2c(cc1OC)C(=O)C(=O)N(CCCN(C)CCCSc1cc(Br)c(N)c(Br)c1)CC2` registered a melting point of 118 to 125 °C.

The compound `O=C1CC(c2cccnc2)=NN1c1ccc(O)cc1` gave a melting point of over 250 °C.

In turn, `Cc1cc(C)cc(C(=O)c2c(C(C)C)c(=O)[nH]c(=O)n2Cc2cc(C)nc(N3C(=O)c4ccccc4C3=O)c2)c1` showed a melting point of 310 to 311 °C.

`Cc1cc(CC(C)NCCC(c2ccccc2)c2ccccc2)ccc1O` (stereo unspecified): the melting point lay within 115 to 118 °C.

For `C=C(C)C(=O)OCCCCOC(=O)/C=C/c1ccc(OC(=O)c2ccc(OC)cc2)cc1`, the melting point is 89 to 90 °C.

Compound `Cc1nn(C)c(=O)n1-c1ccc([N+](=O)[O-])cc1` came in with a melting point of 153 °C.

As to `COc1cc(OC)c2c3c(n(Cc4ccccc4)c2c1)CCCC3C(N)=O` (stereo unspecified), the melting point is 190 to 192 °C.

`Cc1c(Cl)cccc1S(=O)(=O)Nc1ccc2onc(C)c2c1` yielded a melting point of 163 °C.

Compound `CCOc1cc(-c2cc(C(F)(F)F)n3cnc(-c4ccncc4)c3n2)ccc1C(F)(F)F` returned a melting point of 212 °C.

With `O=C(NNc1ccccc1)C1CSC(c2cccnc2)N1` (stereo unspecified), the melting point amounted to 155 °C.

For the compound `Fc1ccc(CN(C(=S)Nc2ccccc2)C2CCCC2)cc1`, the melting point came to 135 °C.

The compound `c1ccc(-c2cn([C@H]3CN4CCC3CC4)nn2)cc1` yielded a melting point of 132 °C.

Regarding `Cc1c(N)cc(Cl)cc1N`, the melting point lay within 75 to 77 °C.

`N#CCCNC(=O)c1cccc(-c2cccc3nn(Cc4ccccc4F)cc23)c1`: the melting point is 165 to 166 °C.

Take `O=c1[nH]c2ccc3c(c2[nH]c1=O)CCCN3`: the melting point is over 285 °C.

Turning to `CCCn1cc2c(C3C(=O)Nc4ccc(S(=O)(=O)N(C)C)cc43)nc(NCCN(C)C)nc2n1` (stereo unspecified), the melting point was 259 to 263 °C.

Consider `O=c1ncn(Cc2ccc(Cl)cc2)c2cc(-c3ccc(OCc4ccccn4)cc3)sc12`, for which the melting point lay within 257 to 259 °C.

`COc1cccc(C2NC(=O)N(C(C)C)c3cc(C)ccc32)c1` (stereo unspecified): the melting point was 167 to 169 °C.

Take `Cc1c(CO)c2cnnc(OCc3ccc(F)cc3)c2n1C[C@H]1C[C@@H]1C`: the melting point fell in the range of 128 to 129 °C.

For the compound `CCc1nn(CCO)c(CC)c1Oc1cc(C#N)cc(SC)c1`, the melting point is 72 °C.

With `CC(C(=O)NC1CCCCC1)N1CCN(c2ccccn2)CC1` (stereo unspecified), the melting point was 126 to 128 °C.

Regarding `Cc1ccc(-c2nc(Cl)cc(N3CCN(C)CC3)n2)cc1`, the melting point is 93 to 95 °C.

`COc1cccc(CN2C(=O)N(c3cnn(Cc4c(C)noc4C)c3)C(=O)C2(C)C)c1` came in with a melting point of 107 to 108 °C.

Compound `C[C@H](Nc1ncnc2[nH]cnc12)c1oc2ccccc2c(=O)c1-c1cccc(F)c1` registered a melting point of 135 to 138 °C.

`O=C(CNC(=O)c1ccc([N+](=O)[O-])c(I(=O)=O)c1)OCC(Cl)(Cl)Cl`: the melting point lay within 128 to 130 °C.

Consider `CN1C(=O)C2(COc3cc4c(cc32)OCCO4)c2c(-c3cc(O)[nH]n3)cccc21` (stereo unspecified), for which the melting point was over 250 °C.

In the case of `CCOC(=O)c1nnc2ccc(NC(=O)c3ccccc3OC(C)=O)cc2c1O`, the melting point lay within 240 to 242 °C.

`Cc1noc2cc3c(cc12)C1(CO3)C(=O)N(CCC(C)C)c2ccccc21` (stereo unspecified) yielded a melting point of 135 to 138 °C.

Compound `CC(C)Cn1c(CONS(C)(=O)=O)nc2c(N)nc3ccccc3c21` registered a melting point of 215 to 216 °C.

Turning to `CC(C)(C)C(=O)Oc1ccccc1-c1nnn[nH]1`, the melting point was in the range of 82 to 85 °C.

For `Cn1ncc2c1C(=O)C(Cl)=C(Cl)C2=O`, the melting point was in the range of 176 to 177 °C.

Turning to `COc1cccc2c1CCC1C(=O)OC(=O)C21` (stereo unspecified), the melting point lay within 138 to 140 °C.

Turning to `OCc1ccc2ccccc2c1Br`, the melting point was 101 to 102 °C.

In turn, `COC(=O)/C=C/n1cnc2c(OC)cc(OC)cc2c1=O` yielded a melting point of 224 to 226 °C.

For the compound `CCCCC1OC(=O)c2cc(NC3CCCCC3)ccc21` (stereo unspecified), the melting point lay in the range of 123 to 124 °C.

On to `N#Cc1nn(-c2c(Cl)cc(C(F)(F)F)cc2Cl)c(N)c1-c1cc(Br)no1`, for which the melting point turned out to be 227 °C.

Consider `COCCOc1cc2ncnc(Nc3ccc(C)c(OC(C)=O)c3)c2cc1OC`, for which the melting point lay within 180 to 183 °C.
